Reference: ChEMBL document CHEMBL1157274, “Two new maytansinoids from maytenus buchananii” (1999)

Experiments:
KB = test: Cytotoxicity against human KB cells; format: functional
P388 = test: In vivo antitumor activity against mouse P388 cells at 0.1 to 1.6 ug/kg; format: functional

Compound: COc1cc2cc(c1Cl)N1CC(=O)C(C)(O)C(=O)N(C)[C@@H](C)C(=O)O[C@@H](CC1=O)[C@@]1(C)O[C@H]1[C@H](C)[C@@H]1C[C@@](O)(NC(=O)O1)[C@H](OC)/C=C/C=C(\C)C2 (some centres not stated) [MAYTANBICYCLINOL]
- ED50 (KB): <1 ×10⁻⁵ ug/ml
- T/C (P388): 140%
